Measurements as given in US6191126A, “Topical use of κ opioid agonists to treat ocular pain” (Alcon Laboratories, Inc., priority 1999, dated 2001).

What was measured:
[1] = tested on: formalin-induced ocular pain (blinking); test: formalin-induced model of ocular pain in the rat (inhibition of blinking after topical ocular dosing); settings: in vivo
[2] = tested on: mu opioid receptor (vs delta and kappa receptors); settings: Goodman and Gilman, 8th Edition; cited from earlier work

Compound | % Inhibition (of blink count in first minute vs vehicle) [1] | times greater affinity for the mu receptor than for the delta and kappa receptors [2]
COC(=O)N1CCN(C(=O)Cc2ccc(Cl)c(Cl)c2)C(CN2CCCC2)C1 (racemic) [GR 89696] | 98 | 
CN1CC[C@]23c4c5ccc(O)c4O[C@H]2[C@@H](O)C=C[C@H]3[C@H]1C5 [Morphine] | 8 | ten
